The text below walks through data of PubChem BioAssay (NCI).

Test systems include A549 NSCLC; KM12 colon; MALME-3M melanoma; MDA-MB-231 breast; MDA-MB-435; NCI-H23 lung; OVCAR-8 ovarian; RPMI-8226 leukemia; SW-620 colon; U251 CNS.
Holding throughout (experiment): NCI anticancer screen, dose series, 48 h

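These data come from cells grown in 96-well plates and exposed to compound for 48 hours at five concentrations. GI50 is the concentration that inhibits growth by half. TGI denotes the concentration required for complete inhibition of growth.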

On to `O=C(/C=C/c1cccs1)c1ccccc1Cl`, for which the TGI with A549 NSCLC was 1.4 µM; in the test with KM12 colon, 20.4 µM; with MALME-3M melanoma it was 26.7 µM; in the test on MDA-MB-231 breast it was over 54.4 µM; in the test with MDA-MB-435, 25.5 µM; with NCI-H23 lung it was 25.8 µM. Besides, the TGI in the test on OVCAR-8 ovarian is over 100 µM; in the test with RPMI-8226 leukemia, 61.9 µM; in the test on SW-620 colon, 40.9 µM; in the test with U251 CNS, 27.7 µM.
Turning to `O=c1cc(NCc2ccncc2)[nH]c(=O)[nH]1`, the TGI in the test with A549 NSCLC, in the test with KM12 colon, in the test with MALME-3M melanoma, with MDA-MB-231 breast, in the test with MDA-MB-435 and with NCI-H23 lung was over 100 µM in each case. Besides, the TGI with OVCAR-8 ovarian, in the test on RPMI-8226 leukemia, with SW-620 colon and in the test with U251 CNS was over 100 µM in each case.
`COC(=O)CCCC(=O)NC1=C(NCc2ccccc2)C(=O)c2ccccc2C1=O`: the TGI in the test on A549 NSCLC was over 100 µM; with KM12 colon, over 100 µM; in the test with MALME-3M melanoma, 37.7 µM; in the test with MDA-MB-231 breast, over 100 µM; with MDA-MB-435, over 100 µM; in the test with NCI-H23 lung it was over 100 µM. Moreover, the TGI with OVCAR-8 ovarian, in the test on RPMI-8226 leukemia, in the test with SW-620 colon and in the test on U251 CNS was over 100 µM in each case.
Take `Cc1ccc(S(=O)(=O)N(CC(O)COc2ccccc2)c2ccc(F)cc2F)cc1` (stereo not given): the TGI in the test on A549 NSCLC amounted to 26.9 µM; in the test on KM12 colon, 68.1 µM; with MALME-3M melanoma it was 36 µM; in the test with MDA-MB-231 breast, 39 µM; in the test with MDA-MB-435, 31.4 µM; in the test on NCI-H23 lung it was 27.7 µM. Further, the TGI in the test with OVCAR-8 ovarian stood at 31.3 µM; in the test with RPMI-8226 leukemia, 34.5 µM; in the test on SW-620 colon, 31.9 µM; with U251 CNS it was 27.5 µM.
For `Nc1ncnc2c1ncn2Cc1cccc(CCl)c1`, the TGI was 91.4 µM with A549 NSCLC; 33 µM in the test on KM12 colon; 37.7 µM in the test on MALME-3M melanoma; 34 µM in the test on MDA-MB-231 breast; 44.6 µM with MDA-MB-435; 36.5 µM with NCI-H23 lung. Also, the TGI with OVCAR-8 ovarian turned out to be 42.9 µM; in the test with RPMI-8226 leukemia, 44.5 µM; in the test on SW-620 colon, 29.9 µM; in the test on U251 CNS, 32.5 µM.
In the case of `CC(C)OC1OC(CO)C(O)CC1n1cc(F)c(=O)[nH]c1=O` (stereo not given), the TGI in the test with A549 NSCLC, in the test with KM12 colon, in the test on MALME-3M melanoma, with MDA-MB-231 breast, in the test with MDA-MB-435 and in the test with NCI-H23 lung was over 100 µM throughout. The TGI in the test with OVCAR-8 ovarian, in the test on RPMI-8226 leukemia, in the test on SW-620 colon and in the test on U251 CNS was over 100 µM in each case.
As to `O=C(Nc1cccc(-n2cc(-c3ccncc3)c(-c3ccc(O)c(Cl)c3)n2)c1)c1cccc(C(F)(F)F)c1`, the GI50 in the test on A549 NSCLC is 2.5 µM; with KM12 colon it was 2.67 µM; in the test on MALME-3M melanoma, 5.59 µM; in the test on MDA-MB-231 breast, 1.43 µM; in the test on MDA-MB-435, 3.57 µM; in the test on NCI-H23 lung, 4.38 µM. In addition, the GI50 was 3.89 µM in the test on OVCAR-8 ovarian, 2.04 µM with RPMI-8226 leukemia, 5.81 µM with SW-620 colon and 2.14 µM in the test on U251 CNS. Further, the TGI is over 100 µM with A549 NSCLC; 64.3 µM in the test with KM12 colon; over 100 µM in the test on MALME-3M melanoma; 5.3 µM in the test with MDA-MB-231 breast; over 100 µM in the test with MDA-MB-435; over 100 µM in the test with NCI-H23 lung. The TGI was over 100 µM in the test on OVCAR-8 ovarian, 10.6 µM in the test on RPMI-8226 leukemia, over 100 µM in the test on SW-620 colon and over 100 µM in the test on U251 CNS.
Consider `O=C1c2ccccc2-c2[nH]c3cn[nH]c(=O)c3c21`, for which the TGI in the test on A549 NSCLC, in the test on KM12 colon, in the test on MALME-3M melanoma, in the test on MDA-MB-231 breast, in the test with MDA-MB-435 and with NCI-H23 lung was over 100 µM in each case. For the same molecule, the TGI with OVCAR-8 ovarian, in the test on RPMI-8226 leukemia, with SW-620 colon and with U251 CNS was over 100 µM each time.
Regarding `CC(C)C1(O)C(=O)N(c2c(F)c(F)c(F)c(F)c2F)C(=S)N1CCSc1ccccc1` (stereo not given), the TGI in the test with A549 NSCLC is 29.2 µM; in the test on KM12 colon it was 31.5 µM; in the test on MALME-3M melanoma it was 31.6 µM; in the test with MDA-MB-231 breast, 26.4 µM; in the test on MDA-MB-435, 32.8 µM; in the test with NCI-H23 lung, 32.9 µM. The TGI in the test on OVCAR-8 ovarian worked out at 33.8 µM; in the test on RPMI-8226 leukemia, 28.7 µM; with SW-620 colon, 30.3 µM; with U251 CNS, 32.1 µM.
